Measurements: ChEMBL document CHEMBL1201862, “PubChem BioAssay data set” (2004)
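These data come from cells grown in 96-well plates and exposed to compound for 48 hours at five concentrations. GI50 is the concentration that inhibits growth by half.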 Active and inactive are the calls of the source. Rule as the data show it: active = GI50 up to about 1.1 µM and inactive = higher.

Tests used:
Experiment in all cases: NCI-60 cell line screen, 48 h
SR = system: SR
DU-145 = system: DU-145
SF-268 = system: SF-268
SNB-19 = system: SNB-19
A549 = system: A549
OVCAR-4 = system: OVCAR-4
MDA-MB-231 = system: MDA-MB-231
RPMI-8226 = system: RPMI-8226
MDA-MB-435 = system: MDA-MB-435
TK-10 = system: TK-10
OVCAR-8 = system: OVCAR-8
SK-MEL-5 = system: SK-MEL-5
SN12C = system: SN12C
UO-31 = system: UO-31
HCT-116 = system: HCT-116
UACC-257 = system: UACC-257
HCT-15 = system: HCT-15
T47D = system: T47D
PC-3 = system: PC-3
NCI-H460 = system: NCI-H460

SMILES | GI50 (SR) | GI50 (DU-145) | GI50 (SF-268) | GI50 (SNB-19) | GI50 (A549) | GI50 (OVCAR-4) | GI50 (MDA-MB-231) | GI50 (RPMI-8226) | GI50 (MDA-MB-435) | GI50 (TK-10) | GI50 (OVCAR-8) | GI50 (SK-MEL-5) | GI50 (SN12C) | GI50 (UO-31) | GI50 (HCT-116) | GI50 (UACC-257) | GI50 (HCT-15) [µM] | GI50 (T47D) | GI50 (PC-3) | GI50 (NCI-H460)
Cc1cccc2c1[nH]c1[nH]c(=O)[nH]c(=O)c12 | > 100 µM (inactive) | > 100 µM (inactive) | > 100 µM (inactive) | > 100 µM (inactive) | > 100 µM (inactive) | > 100 µM (inactive) | > 100 µM (inactive) | > 100 µM (inactive) | > 100 µM (inactive) | > 100 µM (inactive) | > 100 µM (inactive) | > 100 µM (inactive) | > 100 µM (inactive) | > 100 µM (inactive) | > 100 µM (inactive) | > 100 µM (inactive) | > 100 | > 100 µM (inactive) | – | –
NS(=O)(=O)c1ccc(CNC(=S)NC(=O)Nc2ccc(Cl)c(Cl)c2)cc1 | – | 33.3 µM (inactive) | 21.7 µM (inactive) | 19.8 µM (inactive) | 23.6 µM (inactive) | 31.5 µM (inactive) | 10.6 µM (inactive) | 16 µM (inactive) | – | 39.5 µM (inactive) | 20.3 µM (inactive) | 17.8 µM (inactive) | 17.3 µM (inactive) | 16.9 µM (inactive) | 17.5 µM (inactive) | 32.8 µM (inactive) | 16.2 | 18.1 µM (inactive) | 8.57 µM (inactive) | 25.2 µM (inactive)
CCC(=O)NC(Nc1ccc(O)cc1)(C(F)(F)F)C(F)(F)F | 36.5 µM (inactive) | > 100 µM (inactive) | > 100 µM (inactive) | > 100 µM (inactive) | – | – | 73.8 µM (inactive) | 33.3 µM (inactive) | 25.2 µM (inactive) | > 100 µM (inactive) | – | – | > 100 µM (inactive) | 35.6 µM (inactive) | 46.3 µM (inactive) | 37.4 µM (inactive) | 29.9 | 49.4 µM (inactive) | – | > 100 µM (inactive)
O=CC1OC(=O)c2cc(O)c(O)c(O)c2-c2c(cc(O)c(O)c2O)C(=O)OC1C(O)C(O)CO (stereo not given) | 20.6 µM (inactive) | > 100 µM (inactive) | > 100 µM (inactive) | > 100 µM (inactive) | 49.8 µM (inactive) | 17.4 µM (inactive) | 17.1 µM (inactive) | 26.2 µM (inactive) | 18.3 µM (inactive) | 19.5 µM (inactive) | 19.8 µM (inactive) | 51.6 µM (inactive) | 28.5 µM (inactive) | > 100 µM (inactive) | 28.1 µM (inactive) | 82 µM (inactive) | 69.2 | – | 16.2 µM (inactive) | 28.8 µM (inactive)
C[C@]1(O)CC[C@H]2[C@@H]3CCc4cc(O)ccc4[C@H]3CC[C@@]21C | 0.21 µM (active) | – | 3.46 µM (inactive) | 92.3 µM (inactive) | 3.94 µM (inactive) | > 100 µM (inactive) | 7.23 µM (inactive) | 0.687 µM (active) | 0.186 µM (active) | 0.826 µM (active) | 7.48 µM (inactive) | 0.391 µM (active) | – | 8.32 µM (inactive) | – | 28.2 µM (inactive) | 1.15 | 38.5 µM (inactive) | 1.87 µM (inactive) | 1.36 µM (inactive)
C=CCOC1OC(CS(=O)(=O)O)C(OC(C)=O)C(OC(C)=O)C1OC(C)=O (stereo not given) | > 100 µM (inactive) | > 100 µM (inactive) | – | > 100 µM (inactive) | – | > 100 µM (inactive) | – | > 100 µM (inactive) | > 100 µM (inactive) | > 100 µM (inactive) | > 100 µM (inactive) | > 100 µM (inactive) | > 100 µM (inactive) | > 100 µM (inactive) | > 100 µM (inactive) | > 100 µM (inactive) | > 100 | > 100 µM (inactive) | > 100 µM (inactive) | > 100 µM (inactive)
CCc1nnc(-c2nsc3ccccc23)s1 | 53 µM (inactive) | – | > 100 µM (inactive) | > 100 µM (inactive) | > 100 µM (inactive) | > 100 µM (inactive) | – | 45.4 µM (inactive) | – | > 100 µM (inactive) | > 100 µM (inactive) | > 100 µM (inactive) | > 100 µM (inactive) | 34 µM (inactive) | > 100 µM (inactive) | > 100 µM (inactive) | 72.4 | – | – | > 100 µM (inactive)
O=C(/C=C/c1ccc(O)c(O)c1)NCCc1ccc(-c2ccccc2)cc1 | – | > 100 µM (inactive) | 31.8 µM (inactive) | > 100 µM (inactive) | > 100 µM (inactive) | > 100 µM (inactive) | – | 39.4 µM (inactive) | – | 19.1 µM (inactive) | > 100 µM (inactive) | 45.8 µM (inactive) | – | 94.8 µM (inactive) | 27.3 µM (inactive) | > 100 µM (inactive) | > 100 | > 100 µM (inactive) | > 100 µM (inactive) | 48.9 µM (inactive)
